Converted amounts (≈) assume the structure as drawn.
Tests used:
Assay in all cases: In-vitro test, inhibitory concentration by dilution series
Format in all cases: cell-based
[1] = system: Staphylococcus aureus SG 511; settings: II = Staphylococcus aureus SG 511, step = concentration with no visible growth; for MIC: SG511, read-out: Hemmkonzentration nach Verdünnung (Verdünnungsreihe) (converted)
Description: (§1) Die antibiotische Wirksamkeit erfindungsgemäßer Verbindungen wurde in der üblichen Weise durch Ermittlung der Hemmkonzentrationen nach Verdünnung ermittelt.
(§2) Die erhaltenen Ergebnisse sind in der nachstehenden Tabelle zusammengefaßt.

Citrobacter freudii = settings: XIV = Citrobacter freudii, Laborstämme, step = concentration with no visible growth; for MIC: read-out: Hemmkonzentration nach Verdünnung (Verdünnungsreihe) (converted)
Description: as §1, §2

[2] = system: Staphylococcus epidermidis; settings: X = Staphylococcus epidermidis, Laborstämme, step = concentration with no visible growth; for MIC: read-out: Hemmkonzentration nach Verdünnung (Verdünnungsreihe) (converted)
Description: as §1, §2

Enterokokken = settings: XI = Enterokokken, Laborstämme, step = concentration with no visible growth; for MIC: read-out: Hemmkonzentration nach Verdünnung (Verdünnungsreihe) (converted)
Description: as §1, §2

[3] = system: Pseudomonas aeruginosa NCTC 10701; settings: IV = Pseudomonas aeruginosa NCTC 10701, step = concentration with no visible growth; for MIC: NCTC10701, read-out: Hemmkonzentration nach Verdünnung (Verdünnungsreihe) (converted)
Description: as §1, §2

Proteus vulgaris OX 19 = settings: III = Proteus vulgaris OX 19, step = concentration with no visible growth; for MIC: OX19, read-out: Hemmkonzentration nach Verdünnung (Verdünnungsreihe) (converted)
Description: as §1, §2

Enterobacter cloacae = settings: XIII = Enterobacter cloacae, Laborstämme, step = concentration with no visible growth; for MIC: read-out: Hemmkonzentration nach Verdünnung (Verdünnungsreihe) (converted)
Description: as §1, §2

[4] = system: Pseudomonas aeruginosa SG 137; settings: V = Pseudomonas aeruginosa SG 137, step = concentration with no visible growth; for MIC: SG137, read-out: Hemmkonzentration nach Verdünnung (Verdünnungsreihe) (converted)
Description: as §1, §2

Bacillus subtilis SG 119 = settings: I = Bacillus subtilis SG 119, step = concentration with no visible growth; for MIC: SG119, read-out: Hemmkonzentration nach Verdünnung (Verdünnungsreihe) (converted)
Description: as §1, §2

Staphylococcus aureus = settings: IX = Staphylococcus aureus, Laborstämme, step = concentration with no visible growth; for MIC: read-out: Hemmkonzentration nach Verdünnung (Verdünnungsreihe) (converted)
Description: as §1, §2

[5] = system: Salmonella gallinarium ATCC 9184; settings: ATCC9184; VI = Salmonella gallinarium ATCC 9184; step = concentration with no visible growth; read-out: Hemmkonzentration nach Verdünnung (Verdünnungsreihe) (converted)
Description: as §1, §2

Escherichia coli = settings: XII = Escherichia coli, Laborstämme, step = concentration with no visible growth; for MIC: read-out: Hemmkonzentration nach Verdünnung (Verdünnungsreihe) (converted)
Description: as §1, §2

[6] = system: Serratia marcescens SG 621; settings: VIII = Serratia marcescens SG 621, step = concentration with no visible growth; for MIC: SG621, read-out: Hemmkonzentration nach Verdünnung (Verdünnungsreihe) (converted)
Description: as §1, §2

[7] = system: Klebsiella pneumoniae SG 117; settings: VII = Klebsiella pneumoniae SG 117, step = concentration with no visible growth; for MIC: SG117, read-out: Hemmkonzentration nach Verdünnung (Verdünnungsreihe) (converted)
Description: as §1, §2

Question: For `CCc1cc2c(OC(=O)OCC(C)C)c(C(=O)N[C@@H](C(=O)N[C@@H]3C(=O)N4[C@@H]3SC(C)(C)[C@@H]4C(=O)O)c3ccccc3)cnc2cc1COC(C)C` [Beisp. 21, 6-[D-(-)-α-([4'-Isobutoxycarbonyloxy-6'-ethyl-7'-isopropoxymethylen-chinolinoyl-3']-carboxamido)-α-phenylacetamido]-penicillansäure-Natriumsalz], which MIC [1] is on record?
Answer: 1.56 µM (≈ 1.12 µg/mL)

Question: And the MIC (Citrobacter freudii)?
Answer: 6.25 µM (≈ 4.51 µg/mL)

Question: And the MIC [2]?
Answer: 6.25 µM (≈ 4.51 µg/mL)

Question: And the MIC (Enterokokken)?
Answer: 12.5 µM (≈ 9.01 µg/mL)

Question: And the MIC [3]?
Answer: 0.78 µM (≈ 0.562 µg/mL)

Question: And the MIC (Proteus vulgaris OX 19)?
Answer: 0.39 µM (≈ 0.281 µg/mL)

Question: And the MIC (Enterobacter cloacae)?
Answer: 6.25 µM (≈ 4.51 µg/mL)

Question: What about the MIC [4] of the same compound?
Answer: 6.25 µM (≈ 4.51 µg/mL)

Question: And the MIC (Bacillus subtilis SG 119)?
Answer: 1.56 µM (≈ 1.12 µg/mL)

Question: What about the MIC (Staphylococcus aureus) of the same compound?
Answer: 12.5 µM (≈ 9.01 µg/mL)

Question: What about the MIC [5] of the same compound?
Answer: 3.12 µM (≈ 2.25 µg/mL)

Question: What about the MIC (Escherichia coli) of the same compound?
Answer: 1.56 µM (≈ 1.12 µg/mL)

Question: What about the MIC [6] of the same compound?
Answer: 1.56 µM (≈ 1.12 µg/mL)

Question: What about the MIC [7] of the same compound?
Answer: 0.78 µM (≈ 0.562 µg/mL)

Question: What does the source list for `CC1(C)S[C@@H]2[C@H](NC(=O)[C@H](N)c3ccccc3)C(=O)N2[C@H]1C(=O)O` [Ampicillin, reference compound]?
Answer: MIC [1]: 0.78 µM (≈ 0.273 µg/mL); MIC (Citrobacter freudii): > 200 µM; MIC [2]: 6.25 µM (≈ 2.18 µg/mL); MIC (Enterokokken): 6.25 µM (≈ 2.18 µg/mL); MIC [3]: 200 µM (≈ 69.9 µg/mL); MIC (Proteus vulgaris OX 19): 12.5 µM (≈ 4.37 µg/mL); MIC (Enterobacter cloacae): > 200 µM; MIC [4]: > 200 µM; MIC (Bacillus subtilis SG 119): 0.2 µM (≈ 0.0699 µg/mL); MIC (Staphylococcus aureus): 12.5 µM (≈ 4.37 µg/mL); MIC [5]: 0.78 µM (≈ 0.273 µg/mL); MIC (Escherichia coli): 12.5 µM (≈ 4.37 µg/mL); MIC [6]: 50 µM (≈ 17.5 µg/mL); MIC [7]: 12.5 µM (≈ 4.37 µg/mL)

Question: `CCOC(=O)Oc1c(C(=O)N[C@@H](C(=O)N[C@@H]2C(=O)N3[C@@H]2SC(C)(C)[C@@H]3C(=O)O)c2ccccc2)cnc2cc(COc3ccc(C)cc3)c(CC)cc12` [Beisp. 3, 6-[D-(-)-α-([4'-Ethoxycarbonyloxy-6'-ethyl-7'-(4''-methyl)-phenoxymethylen-chinolinoyl-3']-carboxamido)-α-phenylacetamido]-penicillansäure-Natriumsalz] was tested. Which MIC [1] did it give?
Answer: 0.78 µM (≈ 0.578 µg/mL)

Question: What about the MIC (Citrobacter freudii) of the same compound?
Answer: 6.25 µM (≈ 4.63 µg/mL)

Question: What about the MIC [2] of the same compound?
Answer: 12.5 µM (≈ 9.26 µg/mL)

Question: What about the MIC (Enterokokken) of the same compound?
Answer: 25 µM (≈ 18.5 µg/mL)

Question: And the MIC [3]?
Answer: 3.12 µM (≈ 2.31 µg/mL)

Question: And the MIC (Proteus vulgaris OX 19)?
Answer: 0.39 µM (≈ 0.289 µg/mL)

Question: What about the MIC (Enterobacter cloacae) of the same compound?
Answer: 6.25 µM (≈ 4.63 µg/mL)

Question: What about the MIC [4] of the same compound?
Answer: 12.5 µM (≈ 9.26 µg/mL)

Question: And the MIC (Bacillus subtilis SG 119)?
Answer: 1.56 µM (≈ 1.16 µg/mL)

Question: And the MIC (Staphylococcus aureus)?
Answer: 50 µM (≈ 37 µg/mL)

Question: What about the MIC [5] of the same compound?
Answer: 3.12 µM (≈ 2.31 µg/mL)

Question: And the MIC (Escherichia coli)?
Answer: 1.56 µM (≈ 1.16 µg/mL)

Question: What about the MIC [6] of the same compound?
Answer: 0.78 µM (≈ 0.578 µg/mL)

Question: What about the MIC [7] of the same compound?
Answer: 0.78 µM (≈ 0.578 µg/mL)

Question: `CC(C)COC(=O)Oc1c(C(=O)N[C@@H](C(=O)N[C@@H]2C(=O)N3[C@@H]2SC(C)(C)[C@@H]3C(=O)[O-])c2ccccc2)cnc2c1ccc1ccccc12.[Na+]` [Beisp. 12, 6-[D-(-)-α-([4'-Isobutoxycarbonyloxybenzo[1,2n]chinolinoyl-3']-carboxamido)-α-phenylacetamido]-penicillansäure-Natriumsalz] was tested. Which “Hemmkonzentration nach Verdünnung (Verdünnungsreihe)” value (shortened to “Hemmkonzentration nach Verdünnung”) [1] did it give?
Answer: 9 (= bei 0,00078 mM)

Question: And the “Hemmkonzentration nach Verdünnung” value (Citrobacter freudii)?
Answer: 6 (= bei 0,00625 mM)

Question: And the “Hemmkonzentration nach Verdünnung” value [2]?
Answer: 7 (= bei 0,00312 mM)

Question: And the “Hemmkonzentration nach Verdünnung” value (Enterokokken)?
Answer: 5 (= bei 0,0125 mM)

Question: What about the “Hemmkonzentration nach Verdünnung” value [3] of the same compound?
Answer: 7 (= bei 0,00312 mM)

Question: And the “Hemmkonzentration nach Verdünnung” value (Proteus vulgaris OX 19)?
Answer: 10 (= bei 0,00039 mM)

Question: And the “Hemmkonzentration nach Verdünnung” value (Enterobacter cloacae)?
Answer: 6 (= bei 0,00625 mM)

Question: And the “Hemmkonzentration nach Verdünnung” value [4]?
Answer: 5 (= bei 0,0125 mM)

Question: And the “Hemmkonzentration nach Verdünnung” value (Bacillus subtilis SG 119)?
Answer: 7 (= bei 0,00312 mM)

Question: What about the “Hemmkonzentration nach Verdünnung” value (Staphylococcus aureus) of the same compound?
Answer: 6 (= bei 0,00625 mM)

Question: And the “Hemmkonzentration nach Verdünnung” value (Escherichia coli)?
Answer: 7 (= bei 0,00312 mM)

Question: And the “Hemmkonzentration nach Verdünnung” value [6]?
Answer: 7 (= bei 0,00312 mM)

Question: And the “Hemmkonzentration nach Verdünnung” value [7]?
Answer: 9 (= bei 0,00078 mM)

— patent publication EP0496332A1, “Alpha-aminoquinolinoyl-[3]-penicillines, process for their preparation and their use as antibacterial agents” (ARZNEIMITTELWERK DRESDEN GmbH, priority 1991, dated 1992)
